Reference: patent US8957019B2, “Oligopeptide for treating liver fibrosis and/or treating hepatitis B and/or improving liver function” (priority 2011, dated 2015)
Read-outs that look alike come from different tables or passages of the source. Marks after values point to notes of the source that are not given here. Peptide text beside a SMILES is read from it.

Legend:
[1] = system: mice with liver injury induced by carbon tetrachloride; assay: acute liver injury of mice induced by carbon tetrachloride; format: in vivo, Kunming mice; details: for serum ALT activity / serum AST activity: blood 12 h after CCl4; for serum ALT activity / serum AST activity / GSH-PX activity of liver tissue / MDA content of liver tissue: x ± s, n = 12; for GSH-PX activity of liver tissue / MDA content of liver tissue: liver homogenate
Description: According to random number table, 60 male Kunming mice were divided into a normal control group, a model control group, a bifendate group, a heptapeptide large dose group and a heptapeptide small dose group, and the latter two groups were administered subcutaneously at 0.17 mg/kg and 0.085 mg/kg, respectively, once every two days for 7 d; the bifendate group was intragastric administered at 100 mg/kg once daily for 7 d; and the normal control group and model control group were administered subcutaneously with the same volume of physiological saline; after 1 h after the last administration, except for the normal control group, other groups were given olive oil solution comprising 0.15% carbon tetrachloride at 5 mL/kg by intraperitoneal injection. Each group was fasted but not restraint from water. Blood was taken from eyeball after 12 h, and the serum was separated for use. The mice were killed after the blood was taken, then dissected and the liver were taken out and homogenized for use. For mice from each group, the ALT, AST activities in the serum, and GSH-Px activity and MDA content in liver tissue were measured according to the kit instruction, and all data were expressed as mean±standard deviation (x±SD), and analysis of variance was used for the hypothesis test of mean value differences between each group.

[2] = system: duck hepatitis B virus (DHBV); format: in vivo, Beijing ducks; details: for A (3 d after administration was terminated), serum DHBV-DNA level: 3 d after stop; for A (3 d after administration was terminated), serum DHBV-DNA level / A (5 d after administration), serum DHBV-DNA level / A (10 d after administration), serum DHBV-DNA level / A (before administration), serum DHBV-DNA level: x ± s, n = 6; for A (5 d after administration), serum DHBV-DNA level: day 5 of administration; for A (10 d after administration), serum DHBV-DNA level: day 10 of administration; for A (before administration), serum DHBV-DNA level: baseline before administration, absorbance 490 nm
Description: 2.1 DHBV infection: Beijing ducks of one-day-old were administered from leg tibia (iv) with high DHBV-DNA positive duck serum. Blood was taken 7 d after infection, followed by the serum being separated and kept at -70° C.
2.2 experiment for pharmaceutical treatment: the DHBV infected ducks were divided into groups randomly, and for the heptapeptide administration groups, 0.5 mg/Kg and 1 mg/Kg were administered by subcutaneous injection, once every two days for 10 d, respectively. As for the virus control group, physiological saline was substituted for drugs. […] Venous blood was taken from the duck leg tibia before administration, on day 5 of administration, on day 10 of administration and 3 d after the administration was stopped. The serum was separated and kept at -70° C. for inspection.
2.3 detecting method: the duck serum for inspection above mentioned was taken and the dynamic level of DHBV-DNA in the serum was detected by simultaneous spotting each batch. DHBV-DNA probe was tagged with 32 p according to the instructions of nick translation kits, and then dot blot hybridization with the duck serum was carried out. The spots on the film were detected by radioautography, and the absorbance (A) (490 nm) was measured. Then density of serum DHBV-DNA was calculated by using the A value of hybridization spots as the level of DHBV-DNA in sample.
2.4 efficacy calculation: the x±s of serum DHBV-DNA levels at different time point for each group was calculated, and it is carried out to compare the states before and after administration for each group by using paired t-test. The inhibition ratio of DHBV-DNA was calculated and the dynamic change of the duck serum DHBV-DNA inhibition ratio for each group was compared. The administration groups were compared with the virus control group by using group t-test. The DHBV-DNA inhibition ratio=(A value before administration-A value after administration)/A value before administrationx100%.

rats with liver fibrosis = assay: CCl4 liver fibrosis model of rats; format: in vivo, SD rats; details: for collogen area of liver tissue / serum ALT level / serum AST level: 8 weeks, x ± s, n = 12
Description: 2. Methods: 48 rats were randomly divided into a control group, a model group, a heptapeptide large dose group and a heptapeptide small dose group, each group contains 12 rats. CCI4was formulated into 40% solution with olive oil, and the solution was then injected subcutaneously to the animals at 5 ml/kg twice a week for 8 weeks; the intervention group with GAGPHGG was given the heptapeptide subcutaneously (the concentrations was 0.12 mg/kg and 0.06 mg/kg, respectively, once every two days, 8 weeks) while the model was setting up. The animals of each group were killed at 48 h after the last injection of CCI4, and then serum and liver tissue were taken for detection. The serum ALT, AST and TGFβ1 level were measured according to the kit instruction, and the liver tissue sample was fixed with neutral formalin solution and imbedded with paraffin. 5 ttm tissue section was made by using glass slide coated with polylysine, and it was then stained with HE and Masson triplication collogen for histopathological examination.

[3] = 100 mg/kg intragastric once daily for 7 d
[4] = 0.085 mg/kg s.c. once every two days for 7 d
[5] = 0.17 mg/kg s.c. once every two days for 7 d
[6] = large dose and small dose groups, P<0.01
[7] = 0.5 mg/kg s.c. once every two days
[8] = 0.06 mg/kg s.c. once every two days
[9] = 0.12 mg/kg s.c. once every two days
[10] = heptapeptide large dose, P<0.01

## COC(=O)c1cc(OC)c2c(c1-c1c(C(=O)OC)cc(OC)c3c1OCO3)OCO2 [biphenyldicarboxylate, bifendate, reference compound]
[1]; [3]
  serum ALT activity: 92.36 ± 35.27 U/L
  serum AST activity: 156.24 ± 34.12 U/L
  GSH-PX activity of liver tissue: 296.82 ± 18.31 µmol/g
  MDA content of liver tissue: 5.29 ± 1.25 µmol/g

## C[C@H](NC(=O)CN)C(=O)NCC(=O)N1CCC[C@H]1C(=O)N[C@@H](Cc1c[nH]cn1)C(=O)NCC(=O)NCC(=O)O [heptapeptide, Gly-Ala-Gly-Pro-His-Gly-Gly] (H-GAGPHGG-OH; N-terminus assumed)
[1]; [4]
  serum ALT activity: 123.24 ± 19.73 U/L
  serum AST activity: 186.97 ± 37.56 U/L
  GSH-PX activity of liver tissue: 267.18 ± 32.13 µmol/g
  MDA content of liver tissue: 6.48 ± 1.65 µmol/g
[1]; [5]
  serum ALT activity: 86.52 ± 28.72 U/L
  serum AST activity: 148.62 ± 31.25 U/L
  GSH-PX activity of liver tissue: 308.28 ± 38.54 µmol/g
  MDA content of liver tissue: 2.75 ± 1.36 µmol/g
[1]; large dose (0.17 mg/kg) and small dose (0.085 mg/kg) groups, P <0.01
  serum ALT, AST activities compared with model control group: declined significantly
[1]; [6]
  liver tissue GSH-Px activities compared with model control group: significantly higher than that of the model control group
  liver tissue MDA content compared with model control group: significantly lower than that of the model control group
[1]; mice, carbon tetrachloride
  protection for acute liver injury (conclusion): presents protection for the acute liver injury resulted from carbon tetrachloride
[2]; 0.5 mg/kg s.c. once every two days for 10 d
  A (3 d after administration was terminated), serum DHBV-DNA level: 1.184 ± 0.19
[2]; [7]
  A (5 d after administration), serum DHBV-DNA level: 1.239 ± 0.16
  A (10 d after administration), serum DHBV-DNA level: 1.198 ± 0.18
[2]; 1 mg/kg
  inhibition of duck hepatitis B virus (conclusion): can inhibit duck hepatitis B virus to some extent
[2]; 1 mg/kg s.c. once every two days for 10 d, P < 0.01 vs control
  A (3 d after administration was terminated), serum DHBV-DNA level: 0.884 ± 0.16
[2]; 1 mg/kg s.c. once every two days
  A (5 d after administration), serum DHBV-DNA level: 1.204 ± 0.21
[2]; 1 mg/kg s.c. once every two days, P < 0.01 vs control
  A (10 d after administration), serum DHBV-DNA level: 0.893 ± 0.13
[2]; heptapeptide 0.5 mg/kg s.c. once every two days for 10 d
  A (before administration), serum DHBV-DNA level: 1.286 ± 0.12
[2]; heptapeptide 1 mg/kg s.c. once every two days for 10 d
  A (before administration), serum DHBV-DNA level: 1.274 ± 0.14
Rats with liver fibrosis; [8]
  collogen area of liver tissue: 380.82 ± 78.89 μm^2
  serum ALT level: 148.24 ± 32.52 U/L
  serum AST level: 180.35 ± 28.49 U/L
Rats with liver fibrosis; [9]
  collogen area of liver tissue: 138.12 ± 62.58** μm^2
  serum ALT level: 96.37 ± 35.12 U/L
  serum AST level: 108.75 ± 42.21 U/L
Rats with liver fibrosis; [10]
  mean area of liver collagen compared with model group: also decreased significantly
  serum TGFβ1 level compared with model group: decreased significantly
Rats with liver fibrosis; heptapeptide small dose group
  serum TGFβ1 level and liver collagen area compared with model group: had a decreasing trend, but not statistically significant
Rats with liver fibrosis; large dose (0.12 mg/kg) and small dose (0.06 mg/kg) groups, P<0.01
  ALT and AST levels compared with model control group: significantly declined
Rats with liver fibrosis; rats, CCl4
  anti-liver fibrosis effect (conclusion): has some anti-liver fibrosis effect
